Data on ten compounds can be found in paper PMC8588511, “Chromane Derivatives from Underground Parts of Iris tenuifolia and Their In Vitro Antimicrobial, Cytotoxicity and Antiproliferative Evaluation” (Molecules, 2021).

Read-outs that look alike come from different tables or passages of the source.

In data set [1] the test system is human lung carcinoma cells (A549). Description: antiproliferation assay (CellTiter-Blue). The format is cell-based. As for the experimental part:
(§1) In this assay, K-562 (DSM ACC 10), THP-1 (DSM ACC 16), and HeLa (DSM ACC 57) were maintained in Roswell Park Memorial Institute (RPMI) 1640 medium (Cambrex 12-167F) while HUVEC (ATCC CRL-1730) and A549 (DSM ACC 107) were cultured in Dulbecco’s Modified Eagle’s Medium (DMEM) (Cambrex 12-614F). Cells that were grown in the appropriate cell culture medium were supplemented with 10 mL/L ultraglutamine 1 (Cambrex 17-605E/U1), 550 µL/L (50 mg/mL) gentamicin sulfate (Cambrex 17-518Z), and 10% heat inactivated fetal bovine serum (GIBCO Life Technologies 10270-106) at 37 °C. The tested compounds were dissolved in DMSO, and the cells were seeded in 96-well plates at a density of 1 × 10^4 cells/well. As for the antiproliferative effect of the compounds, the cells were incubated for 72 h, and GI50 values were evaluated to be defined as the concentration causing 50% inhibition of proliferation compared to the untreated control. With regard to the cytotoxic assay, HeLa cells were pre-incubated for 48 h without the test compounds. Then, the cells were exposed with different concentrations of compounds and incubated for 72 h. After that, the adherent HeLa cells were fixed by glutaraldehyde and stained with a 0.05% solutions of methylene blue (SERVA 29198) for 15 min. CC50 was evaluated to be defined as the concentration required for the death of 50% of the cell monolayer as compared to control groups. Under our experimental conditions, the optical density measured from the CellTiter-Blue reagent and methylene blue assay is proportional to the number of viable cells. In this experiment, absorbances were measured at 570 nm against the reference wavelength of 600 nm (CellTiter-Blue assay) and at 660 nm (methylene blue assay). Doxorubicin (Adriamycin®) and imatinib (Gleevec®) were used as positive controls for HUVEC, K-562, and HeLa cells. A repeat determination has been conducted in all experiments, and four replicates were assayed. The calculations of the different values of GI50 and CC50 were performed with software Magellan version 3.00 (Tecan Trading AG, Maennedorf, Switzerland).
A general note: Resazurin is reduced to fluorescent resorufin, in cell work by metabolically active cells.

Data set [2] has as its system human chronic myeloid leukemia cells (K-562). The experiment in a line: antiproliferation assay (CellTiter-Blue). Type of data set: cell-based. The following applies: Homo sapiens, read-out: Antiproliferative Effect, GI50 (CI 95%). As for the experimental part: as §1
Data set [3] deals with human acute monocytic leukemia cells (THP-1). Description: antiproliferation assay (CellTiter-Blue). Type of data set: cell-based. As to the method: as §1
Data set [4] has as its system human umbilical vein endothelial cells (HUVEC). Description: antiproliferation assay (CellTiter-Blue). The conditions noted are these: Homo sapiens, 72 h, read-out: Antiproliferative Effect, GI50 (CI 95%). Type of data set: cell-based. As for the experimental part:
as §1

Data set [5] in a line: cytotoxicity assay (methylene blue). The format is cell-based, human. The following applies: human, HeLa, 72 h, read-out: Cytotoxicity CC50 (CI 95%). As for the experimental part:
as §1

In data set [6] the test system is Pseudomonas aeruginosa (K799/61 B9). The experiment in a line: agar diffusion antimicrobial assay. Type of data set: cell-based. The following applies: Pseudomonas aeruginosa (K799/61 B9); 50 μL of 1 mg/mL in DMSO, 18 h; ciprofloxacin 5 µg/mL. As to the method: (§2) Compounds 1, 2, 3, 5, 9, and 10 were tested for their antimicrobial activities against S. aureus (JMRC:STI 10760), B. subtilis (JMRC:STI 10880), S. aureus MRSA (JMRC: ST 33793) E. faecalis VRE (JMRC: ST 33700), E. coli (JMRC:ST 33699), P. aeruginosa (JMRC:ST 33771), P. aeruginosa (JMRC:ST 33772), M. vaccae (JMRC:STI 10670), S. salmonicolor (JMRC:ST 35974), C. albicans (JMRC:STI 25000), and P. notatum (JMRC:STI 50164)) using agar diffusion assay as previously published. Strains were obtained from the Jena Microbial Resource Collection (JMRC). The bacteria were cultivated on standard I nutrient agar in Petri dishes at 37 °C. Antifungal bioassays were conducted at 30 °C using the basidiomycetous yeast S. salmonicolor and the filamentous ascomycete P. notatum, which were cultivated on malt agar, and the ascomycetous yeast C. albicans, which was cultivated on yeast morphology agar. After inoculation of the test organisms, a disc (9 mm in diameter) was removed from the center of the Petri dish and 50 μL of the test solution (1 mg/mL in DMSO) was added to the cavity. After 18 h of incubation, the inhibiting areola were measured and documented as diameters in mm. Ciprofloxacin (5 µg/mL in deionized water) and amphotericin B (10 µg/mL in DMSO/MeOH 1:1) were used as reference substances against bacterial and fungal strains, respectively.
(Agar diffusion results depend on both activity and mobility in agar.)

Data set [7] concerns Pseudomonas aeruginosa (SG137 B7). The experiment in a line: agar diffusion antimicrobial assay. The format is cell-based. The conditions noted are these: 50 μL of 1 mg/mL in DMSO, 18 h, ciprofloxacin 5 µg/mL. As for the experimental part:
as §2

Data set [8] concerns Enterococcus faecalis (VRE 1528 R10). Description: agar diffusion antimicrobial assay. The format is cell-based. The conditions noted are these: for zone of inhibition at 1000 µg/mL: Enterococcus faecalis (VRE 1528 R10), 50 μL of 1 mg/mL in DMSO, 18 h, ciprofloxacin 5 µg/mL, read-out: Inhibition Zone of Test Microorganism; for antibacterial activity in words: Enterococcus faecalis VRE, agar diffusion. As for the experimental part: as §2

Data set [9] has as its system Staphylococcus aureus (MRSA 134/94 R9). Description: agar diffusion antimicrobial assay. The format is cell-based. The following applies: 50 μL of 1 mg/mL in DMSO, 18 h, ciprofloxacin 5 µg/mL. As to the method:
as §2

For data set [10], the system named is Mycobacterium vaccae (10670 M4). Description: agar diffusion antimicrobial assay. The format is cell-based. As for the experimental part: as §2
For data set [11], the system named is Bacillus subtilis (6633 B1). The experiment in a line: agar diffusion antimicrobial assay. The format is cell-based. As for the experimental part:
as §2

In data set [12] the test system is HUVEC, K-562, THP-1, A549, and HeLa cell lines. The experiment in a line: antiproliferative and cytotoxicity assays, all applied cell lines. The format is cell-based. As to the method: The tested compounds were dissolved in DMSO, and the cells were seeded in 96-well plates at a density of 1 × 10^4 cells/well. […] With regard to the cytotoxic assay, HeLa cells were pre-incubated for 48 h without the test compounds. Then, the cells were exposed with different concentrations of compounds and incubated for 72 h. […] Under our experimental conditions, the optical density measured from the CellTiter-Blue reagent and methylene blue assay is proportional to the number of viable cells. In this experiment, absorbances were measured at 570 nm against the reference wavelength of 600 nm (CellTiter-Blue assay) and at 660 nm (methylene blue assay). […] A repeat determination has been conducted in all experiments, and four replicates were assayed. The calculations of the different values of GI50 and CC50 were performed with software Magellan version 3.00 (Tecan Trading AG, Maennedorf, Switzerland).

Where [13] appears, read: Homo sapiens, A549, 72 h; read-out: Antiproliferative Effect, GI50 (CI 95%).
Where [14] appears, read: Homo sapiens, THP-1, 72 h; read-out: Antiproliferative Effect, GI50 (CI 95%).

One may read the GI50 as the concentration at which growth is held to half of that of the control. The CC50 is the concentration giving 50% cytotoxicity. As usually defined, the zone of inhibition is the extent of the growth-free halo in a diffusion test. For `O=C1C=CCCC(O)C2CC(=O)c3c(O)cc(cc3O2)OC2OC(CO1)C(O)C(O)C2O` (stereo not drawn) [Compound 1, Moniristenulide], the 50% growth inhibitory concentration (GI50) in [1] (setting [13]) is above 100 µM; in [2] (K562, K-562, 72 h), above 100 µM; in data set [3] (setting [14]), above 100 µM; in data set [4], above 100 µM. Moreover, in [5] (HeLa cells (DSM ACC 57)), the CC50 at 72 h was above 100 µM. In addition, the “Inhibition Zone of Test Microorganism” value in [6], in data set [7] and in data set [9] was “-” each time. In addition, the zone of inhibition at 1000 µg/mL in data set [8] stood at 13 mm. The “antibacterial activity in words” value in [8] is listed as “selective activity”.
Regarding `COc1c2c(cc3c1C1CC(O3)c3ccccc3O1)OCO2` (stereo not drawn) [Compound 2, 5-Methoxy-6,7-methylenedioxy-4-O-2′-cycloflavan], the concentration for 50% growth inhibition (GI50) in data set [1] (setting [13]) was above 100 µM; in [2] (K562, K-562, 72 h), 31.5 µM; in data set [3] (setting [14]) it was 29.2 µM; in data set [4], 35.2 µM. Moreover, the CC50 at 72 h in data set [5] (HeLa cells (DSM ACC 57)) was 42.6 µM. Besides, the “Inhibition Zone of Test Microorganism” value in data set [6], in data set [7] and in [9] was “-” each time. Also, the “antibacterial activity in words” value in [10] (Mycobacterium vaccae, agar diffusion, compared to ciprofloxacin) is “demonstrated activity”; in data set [11] (Bacillus subtilis, agar diffusion, compared to ciprofloxacin) it was “demonstrated activity”; in [8] it was “demonstrated activity”. Further, the zone of inhibition at 1000 µg/mL in data set [10] (Mycolicibacterium vaccae, Mycobacterium vaccae (10670 M4), 50 μL of 1 mg/mL in DMSO, 18 h, ciprofloxacin 5 µg/mL, read-out: Inhibition Zone of Test Microorganism) amounted to 17 mm; in data set [11] (Bacillus subtilis (6633 B1), 50 μL of 1 mg/mL in DMSO, 18 h, ciprofloxacin 5 µg/mL, read-out: Inhibition Zone of Test Microorganism) it was 12 mm; in data set [8], 14 mm.
For `O=C1CC(c2ccccc2O)Oc2cc3c(c(O)c21)OCO3` (stereo not drawn) [Compound 4, 5,2′-Dihydroxy-6,7-methylenedioxyflavanone], the 50% growth inhibitory concentration (GI50) amounted to 81 µM in data set [1] (setting [13]); 48.7 µM in data set [2] (K562, K-562, 72 h); 16 µM in data set [3] (setting [14]); 73.3 µM in data set [4]. For the same compound, the 50% cytotoxic concentration (CC50) at 72 h in data set [5] (HeLa cells (DSM ACC 57)) is above 100 µM.
The corresponding values for `COc1cc(O)c2c(c1)OC(c1cccc(O)c1O)CC2=O` (stereo not drawn) [Compound 6, 5,2′,3′-Trihydroxy-7-methoxyflavanone] are 70.9 µM, 56 µM, 16.9 µM, 68.2 µM and above 100 µM.
Consider `COc1cc(O)c2c(c1)OC(c1cccc(O)c1OC)C(O)C2=O` (stereo not drawn) [Compound 7, 3,5,3′-Trihydroxy-7,2′-dimethoxyflavanone], for which the GI50 was above 100 µM in data set [1] (setting [13]); 97.6 µM in data set [2] (K562, K-562, 72 h); above 100 µM in [3] (setting [14]); above 100 µM in data set [4]. The CC50 at 72 h in [5] (HeLa cells (DSM ACC 57)) is above 100 µM. Also, the “antiproliferative / cytotoxic effect in words” value in data set [12] is listed as “reduced or no inhibitory effects”.
As to `COc1ccccc1-c1coc2cc(O)c(OC)c(O)c2c1=O` [Compound 8, 5,7-Dihydroxy-6,2′-dimethoxyisoflavone], the concentration for 50% growth inhibition (GI50) in [1] (setting [13]) was above 100 µM; in data set [2] (K562, K-562, 72 h), above 100 µM; in [3] (setting [14]), above 100 µM; in [4] it was above 100 µM. Moreover, the CC50 at 72 h in data set [5] (HeLa cells (DSM ACC 57)) is above 100 µM. Moreover, the “antiproliferative / cytotoxic effect in words” value in data set [12] is recorded as “reduced or no inhibitory effects”.
For `COc1cc2occ(-c3ccccc3OC3OC(CO)C(O)C(O)C3O)c(=O)c2c(O)c1OC` [Compound 9, 5-Hydroxy-6,7-dimethoxyisoflavone-2′-O-β-D-glucopyranoside], the GI50 in data set [1] (setting [13]) was above 100 µM; in [2] (K562, K-562, 72 h), above 100 µM; in data set [3] (setting [14]), above 100 µM; in [4], above 100 µM. For the same compound, the CC50 at 72 h in data set [5] (HeLa cells (DSM ACC 57)) is above 100 µM. Besides, the “Inhibition Zone of Test Microorganism” value in data set [6], in [7] and in data set [9] was “-” throughout. The zone of inhibition at 1000 µg/mL in data set [8] was found to be 13 mm. Also, the “antibacterial activity in words” value in [8] is listed as “selective activity”. For the same compound, in [12], the “antiproliferative / cytotoxic effect in words” value is “completely not effective”.
`CC[C@H](CC[C@@H](C)[C@H]1CC[C@H]2[C@@H]3CC=C4C[C@@H](O)CC[C@]4(C)[C@H]3CC[C@]12C)C(C)C` [Compound 12, β-Sitosterol]: the GI50 in data set [1] (Homo sapiens, A549, 72 h, read-out: Antiproliferative Effect, GI50 (CI 95%)) is above 100 µM; in [2] (K562, 72 h) it was above 100 µM; in [3] (Homo sapiens, THP-1, 72 h, read-out: Antiproliferative Effect, GI50 (CI 95%)), above 100 µM; in data set [4], above 100 µM. The CC50 at 72 h in data set [5] is above 100 µM. In data set [12], the “antiproliferative / cytotoxic effect in words” value is listed as “neither an antiproliferative effect nor a cytotoxicity”.
Turning to `COc1cccc2c1C(=O)c1c(O)c3c(c(O)c1C2=O)C[C@@](O)(C(=O)CO)C[C@@H]3O[C@H]1C[C@H](N)[C@H](O)[C@H](C)O1` [Doxorubicin, reference compound], the concentration for 50% growth inhibition (GI50) in [2] (K562, K-562, 72 h) came to 0.13 µM; in [4], 0.13 µM. In addition, in data set [5] (HeLa cells (DSM ACC 57)), the half-maximal cytotoxic concentration (CC50) at 72 h came to 0.48 µM.
Regarding `Cc1ccc(NC(=O)c2ccc(CN3CCN(C)CC3)cc2)cc1Nc1nccc(-c2cccnc2)n1` [Imatinib, imatinib, reference compound], the GI50 turned out to be 0.2 µM in data set [2] (K562, K-562, 72 h) and 22.1 µM in data set [4]. Moreover, the CC50 at 72 h in data set [5] (HeLa cells (DSM ACC 57)) amounted to 78.6 µM.
